# Literature values as cited in patent US9532983B2, “Benzofuran compounds, compositions, kits and/or methods thereof” (Savannah State University, priority 2013, dated 2017).
# Target: σ1 receptor (Homo sapiens, UniProt Q99720)
# Settings: read-out: affinity for the σ1 receptor; Maurice et al.; cited from earlier work
# σ1 receptor, sequence (Q99720 whole entry, species assumed): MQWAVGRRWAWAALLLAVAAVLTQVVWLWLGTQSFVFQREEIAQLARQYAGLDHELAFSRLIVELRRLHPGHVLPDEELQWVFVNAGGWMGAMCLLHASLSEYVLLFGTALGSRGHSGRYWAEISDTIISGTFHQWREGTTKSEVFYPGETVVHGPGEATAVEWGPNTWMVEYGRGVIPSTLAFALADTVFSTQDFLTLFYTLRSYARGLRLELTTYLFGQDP
compound,measurement,value
Cc1ccc2c(c1)[C@]13CCCC[C@@H]1[C@H](C2)N(C)CC3 [dimemorfan],Ki,151 nM
